Experimental data published in patent US8232408B2, “Crystalline 1-(3-fluorophenyl)-5-methyl-2-(1H)pyridone, the preparation methods, compositions and applications thereof” (Sunshine Lake Pharma Co., Ltd., priority 2008, dated 2012).
Converted amounts (≈) assume the structure as drawn. Like-named read-outs stand apart in the source and are kept apart here.

Tests used:
[1] = Solubility per "Testing Method For Determining The Solubility", Chinese Pharmacopoeia 2005; assay type: physicochemical; details: water, 25±1° C.
Text: (Testing method is according to the “Testing Method For Determining The Solubility” in The Chinese Pharmacopoeia 2005, the example section of the second part, the last line on the first page to the first line on the second.)
2. […] It can ensure that the drug can be steadily released after taking orally. The drug can mix with one's internal environment easily after release, which renders the steady absorption of the drug, and the achievement of a relatively stable bioavailability.

renal interstitial cell = details: cited from earlier work
[2] = Solubility measurement: excess sample shaken in purified water for 48 hours, filtered supernatant measured; assay type: physicochemical; details: thermodynamic from solid, shaken 48 hours
Procedure: Solubility measurement: excess crystalline FFD solid dispersion was put into a cone-shaped bottle with a stopper. After 100 ml purified water was added, the solution was shaken at a constant of 25° C. and 37° C. separately for 48 hours. The filtered supernatants were diluted and their concentrations were measured thrice for each sample.

| Structure (SMILES) | solubility ([1]; 25 °C, thermodynamic from solid, read-out: solubility) [µg/mL] | effect on anti-fibrosis (renal interstitial cell) | solubility at 48 h ([2]; 25° C.) [µg/mL] | solubility at 48 h ([2]; 37° C.) [µg/mL] | solubility [1] |
| --- | --- | --- | --- | --- | --- |
| Cc1ccc(=O)n(-c2cccc(F)c2)c1 [FFD, 1-(3-fluorophenyl)-5-methyl-2-(1H)-pyridone] | 1410 to 1490 (≈ 6.94 to 7.33 mM) | good effect on anti-fibrosis |  |  |  |
| Cc1ccc(=O)n(-c2cccc(F)c2)c1 [crystalline FFD, 1-(3-fluorophenyl)-5-methyl-2-(1H)-pyridone] |  |  | 2440 to 2550 (≈ 12 to 12.5 mM) | 3140 to 3160 | 2.44˜2.55 mg/ml |
